Target: T1, human TRPV4 (Homo sapiens, UniProt Q9HBA0)
T1 construct: host or cells: tetracycline-inducible Flp-In T-REx 293 cells
Test: Hypotonicity-induced Ca2+ influx (Fluo-4, FDSS)
Type: cell-based
Procedure, shortened: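 Flp-In T-REx 293 cells with tetracycline-induced human TRPV4, loaded with Fluo-4 for 60 min at 25 °C. Compound added 5 min before hypotonic mannitol/CaCl2 solution. Ca2+ signal recorded for 4.5 min on FDSS.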

[1] = Flp-In T-REx 293 cells expressing human TRPV4, examples listed under heading 'Human IC50<50 nM'
[2] = Flp-In T-REx 293 cells stably expressing human TRPV4, compounds listed by potency bin (<10 nM Tables 96-1/96-2, <3 nM Table 97)

T1 sequence (Q9HBA0 whole entry): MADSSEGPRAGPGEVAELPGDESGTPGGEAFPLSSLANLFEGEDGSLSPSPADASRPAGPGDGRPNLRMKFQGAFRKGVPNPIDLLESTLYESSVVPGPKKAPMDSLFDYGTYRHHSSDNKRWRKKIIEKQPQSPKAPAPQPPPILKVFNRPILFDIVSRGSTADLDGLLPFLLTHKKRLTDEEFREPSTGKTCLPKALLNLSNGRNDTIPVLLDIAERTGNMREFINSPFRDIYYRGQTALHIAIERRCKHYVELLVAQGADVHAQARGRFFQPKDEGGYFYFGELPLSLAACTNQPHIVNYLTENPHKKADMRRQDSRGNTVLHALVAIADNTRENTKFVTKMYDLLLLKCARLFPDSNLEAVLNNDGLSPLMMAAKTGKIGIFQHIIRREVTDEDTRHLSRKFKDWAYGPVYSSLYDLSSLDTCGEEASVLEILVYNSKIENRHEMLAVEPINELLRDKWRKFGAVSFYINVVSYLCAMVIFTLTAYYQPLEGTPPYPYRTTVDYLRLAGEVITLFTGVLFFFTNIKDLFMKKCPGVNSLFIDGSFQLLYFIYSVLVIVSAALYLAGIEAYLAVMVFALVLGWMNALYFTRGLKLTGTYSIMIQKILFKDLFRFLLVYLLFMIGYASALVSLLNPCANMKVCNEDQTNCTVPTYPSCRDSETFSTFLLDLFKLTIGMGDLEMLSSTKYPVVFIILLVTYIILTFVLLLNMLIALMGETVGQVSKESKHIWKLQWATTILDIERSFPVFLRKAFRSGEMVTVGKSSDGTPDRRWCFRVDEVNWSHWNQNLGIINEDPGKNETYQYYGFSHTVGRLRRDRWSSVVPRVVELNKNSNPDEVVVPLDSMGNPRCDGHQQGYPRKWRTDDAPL

| SMILES | IC50 [1] [nM] | IC50 [2] [nM] |
| --- | --- | --- |
| O=C(C(O)c1cccc(Oc2ccccc2)c1)N1CCCc2nc(C3(c4cccc(F)c4)CC3)[nH]c(=O)c2C1 (stereo not shown) [17-52] | < 50 |  |
| O=C(COc1ccc(-c2ccccc2)cc1)N1CCCc2nc(C3(c4cccc(Cl)c4)CC3)[nH]c(=O)c2C1 [17-102] | < 50 |  |
| CC(C)c1csc(C2(c3nc4c(c(=O)[nH]3)CN(C(=O)C(O)c3cccc(-c5cccc(OC(F)(F)F)c5)c3)CCC4)CC2)c1 (stereo not shown) [18-20] | < 50 | < 10 |
| O=C(C(O)c1cccc(Cl)c1F)N1CCCc2nc(C3(c4cccs4)CC3)[nH]c(=O)c2C1 (stereo not shown) [18-10] | < 50 |  |
| CN(C)Cc1ccc(-c2cccc(C3(c4nc5c(c(=O)[nH]4)CN(C(=O)[C@H](O)c4cccc(C(F)(F)F)c4)CCC5)CC3)c2)cc1 [42-53] | < 50 |  |
| O=C(C(O)c1cccc(-c2ccc(Cl)cc2)c1)N1CCc2nc(C3(c4cccc(Cl)c4)CC3)[nH]c(=O)c2C1 (stereo not shown) [14-9] | < 50 | < 10 |
| O=C([C@H](O)c1cccc(C(F)(F)F)c1)N1CCCc2nc(C3(c4ccnc(Oc5ccccc5)c4)CC3)[nH]c(=O)c2C1 [19-8] | < 50 |  |
| O=C(C(O)c1cccc(C(F)(F)F)c1F)N1CCCc2nc(C3(c4cccc(F)c4)CC3)[nH]c(=O)c2C1 (stereo not shown) [17-10] | < 50 | < 10 |
| O=C(Cc1cccc(-c2ccc(OC(F)(F)F)cc2)c1)N1CCc2nc(C3(c4cccc(Cl)c4)CC3)[nH]c(=O)c2C1 [14-118] | < 50 |  |
| N#Cc1ccccc1-c1cccc(C2(c3nc4c(c(=O)[nH]3)CN(C(=O)[C@H](O)c3cccc(C(F)(F)F)c3)CCC4)CC2)c1 [42-63] | < 50 | < 10 |
| O=C([C@H](O)c1cccc(Cl)c1)N1CCCc2nc(C3(c4cccc(-c5ccc(F)cc5)c4)CC3)[nH]c(=O)c2C1 [40-9] | < 50 | < 3 |
| O=C(Cc1ccc(COc2ccccc2)cc1)N1CC=C(c2cccc(C3(c4nc5c(c(=O)[nH]4)CN(C(=O)[C@H](O)c4cccc(C(F)(F)F)c4)CCC5)CC3)c2)CC1 [42-79] | < 50 | < 10 |
| CC(C)c1cccc(C2(c3nc4c(c(=O)[nH]3)CN(C(=O)C(O)c3cccc(Cl)c3F)CC4)CC2)c1 (stereo not shown) [14-110] | < 50 | < 10 |
| O=C(C(O)c1cccc(C(F)(F)F)c1)N1CCc2nc(C3(c4ccc(F)cc4)CC3)[nH]c(=O)c2C1 (stereo not shown) [3-67] | < 50 |  |
| CC(C)(C)c1cccc(C(O)C(=O)N2CCCc3nc(C4(c5cncc(-c6ccccc6)c5)CC4)[nH]c(=O)c3C2)c1 (stereo not shown) [19-5] | < 50 | < 10 |
| CN(C)S(=O)(=O)c1ccc(-c2cccc(C3(c4nc5c(c(=O)[nH]4)CN(C(=O)[C@H](O)c4cccc(C(F)(F)F)c4)CCC5)CC3)c2)cc1 [42-18] | < 50 | < 10 |

More lines, now with the values ahead:

| IC50 [1] [nM] | IC50 [2] [nM] | SMILES |
| --- | --- | --- |
| < 50 |  | O=C(C(O)c1cccc(-c2cccc(C(F)(F)F)c2)c1F)N1CCc2nc(C3(c4ccccc4)CC3)[nH]c(=O)c2C1 (stereo not shown) [44-22] |
| < 50 | < 10 | O=C([C@H](O)c1cccc(-c2cccc(OCc3ccccc3)c2)c1)N1CCc2nc(C3(c4ccccc4)CC3)[nH]c(=O)c2C1 [44-93] |
| < 50 | < 10 | O=C([C@H](O)c1cccc(-c2cc(Cl)cc(OC(F)(F)F)c2)c1)N1CCCc2nc(C3(c4ccccc4)CC3)[nH]c(=O)c2C1 [49-34] |
| < 50 | < 10 | O=C([C@H](O)c1cccc(-c2cccc(Cl)c2Cl)c1)N1CCCc2nc(C3(c4ccccc4)CC3)[nH]c(=O)c2C1 [49-42] |
| < 50 | < 10 | CN(Cc1ccccc1)C(=O)c1csc(C2(c3nc4c(c(=O)[nH]3)CN(C(=O)[C@H](O)c3cccc(C(F)(F)F)c3)CCC4)CC2)c1 [59-3] |
| < 50 |  | O=C(C(O)c1cccc(-c2ccc(F)cc2)c1)N1CCc2nc(C3(c4ccccc4)CC3)[nH]c(=O)c2C1 (stereo not shown) [44-50] |
| < 50 | < 10 | O=C(C(O)c1cccc(-c2ccc(Cl)c(C(F)(F)F)c2)c1)N1CCc2nc(C3(c4ccccc4)CC3)[nH]c(=O)c2C1 (stereo not shown) [44-5] |
